# Results reported in patent US20160272969A1, “COMPOSITIONS AND METHODS FOR MODULATING AUTOPHAGIC CELL DEATH” (priority 2013, published 2016).
# Where a SMILES comes first, the peptide text is derived from it. [ ]: non-standard residue; d: D form. The star is where a group is joined. Sta = CC(C)C[C@H](N)[C@@H](O)CC(=O)O; Isovaleryl = CC(C)CC(=O)*
# Experiments:
# [1] = test system: MCF-7 cells; assay: Labeling of autophagic vacuoles with monodansylcadaverine (MDC), MCF-7 cells; format: cell-based, human; conditions: for MDC uptake in cells treated with TPCK: MCF-7 cells treated with TPCK, 3 MA 5 mM or bafilomycin A1 50 nM, 24 hours
# Protocol: (§1) The human breast cancer MCF-7 cell line was cultured in DMEM (Invitrogen, 41965) supplemented with 10% FBS (Beit Haemek, 04-121-1A), 300 mg/l L-glutamine (Beit Haemek, 03-020-1B), 100 U/ml penicillin, 100 μg/ml streptomycin and 12.5 U/ml nystatin (Beit Haemek, 03-032-1B) and 100 U/ml recombinant human insulin (Beit Haemek, 01-818-1H), at 37° C. in 5% CO2.
# (§2) Cells were plated in 24-wells plate or 96-well plates at a concentration of 5·10^4 cells/ml. A day later the cells were treated with different concentrations of tamoxifen or TPCK as indicated below.
# (§3) Following treatment, the cells were incubated with 0.05 mM MDC in PBS at 37° C. for 10 minutes (Biederbick et al., Eur J Cell Biol. 1995 January; 66(1):3-14). Intracellular MDC was measured by fluorescence photometry (excitation wavelength 380 nm, emission filter 525 nm) in a TECAN SPECTRA Fluor Plus microplate reader. The MDC fluorescence intensity was correlated to cell density as measured by XTT reduction assay performed in parallel treated samples. The results are expressed as fluorescence/cell.
# (§4) For visualization of MDC-labeled vacuoles, cells were grown on coverslips, incubated with 0.05 mM MDC at 37° C. for 10 minutes. After incubation, cells were washed four times with PBS and immediately analyzed by fluorescence microscopy.
# [2] = test system: MCF-7 cells; assay: Cell death by trypan blue staining, MCF-7 cells; format: cell-based, human; conditions: for TPCK or tamoxifen-induced cell death on addition of autophagy inhibitor: 50 nM bafilomycin A1, 5 mM 3-Methyladenine or combination of 10 m/ml pepstatin with 10 m/ml E64-d
# Protocol: as §1, §2
# [3] = test system: MCF-7 cells; assay: Western blot of LC3-II levels, MCF-7 cells; format: cell-based, human; conditions: for TPCK-induced accumulation of LC3-II: co-incubation with E64d and pepstatin A together
# [4] = test system: HT-29 cells; assay: Western blot of LC3-II levels, HT-29 cells; format: cell-based, human; conditions: for TPCK-induced accumulation of LC3-II: co-incubation with E64d and pepstatin A together
# [5] = biological target: alpha-1-antitrypsin (AAT) (Homo sapiens, UniProt P01009); assay: Interaction assay between AAT and TRFCK (SDS-PAGE fluorescence, Western blot); format: binding
# Protocol: 2 μg/μl AAT was incubated in vitro with 50 μM TRFCK in 37° c. for 30 min. After the incubation time the sample was subjected to 10% SDS-PAGE before being transferred to polyvinylidene difluoride (PVDF) membranes. At the end of the transfer the membrane was analyzed under UV lamp to track TRFCK fluorescence. The sample was then exposed to primary antibody anti-AAT. The secondary antibody was an HRP-conjugated anti-goat IgG (Jackson ImmunoResearch, USA) The membrane was then visualized using an ECL+plus Western Blotting Detection System.
# AAT was incubated in vitro with 50 μM TRFCK (a fluorescence analog of TPCK, N-tosyl-L-phenylalanine chloromethyl ketone) in 37° C. for 30 min. Following incubation, the sample was applied to SDS-PAGE electrophoresis and transferred to PVDF membrane. Thereafter, the membrane was analyzed under UV lamp to track TRFCK fluorescence (FIG. 2, track 1). In addition, Western blot analysis was performed using the same membrane with an antibody against AAT (FIG. 2, track 2).
# [6] = test system: MCF-7 cells; assay: Western blot of intracellular AAT level, MCF-7 cells; format: cell-based, human; conditions: MCF-7 cell lysates; TPCK 50 μM, tamoxifen 10 μM; 1-3 hr treatment
# Protocol: (§5) Normal or treated 10^7 cells were collected, washed twice with ice-cold PBS and resuspended in 0.5 ml ice-cold lysing buffer (50 mM Tris-HCl pH 7.5, 0.1% NP-40, 1 mM DTT, 0.25M sucrose, 2 mM MgCl2). The cells were broken by politron (4 cycles of 7 sec) and the cell debris pelleted by centrifugation in an ultracentrifuge at 120,000×g for 30 min, at 4° C. The supernatant was used immediately or stored at −70° C. Protein content of each sample was determined with BioRad reagent according to Bradford's method using bovine serum albumin (BSA) as standard. Equal amounts of protein samples (40 μg/lane) were subjected to 10% SDS-PAGE before being transferred to polyvinylidene difluoride (PVDF) membranes. The samples were then exposed to the following primary antibodies: goat anti-AAT and goat anti-actin (Santa Cruz Biotechnology, Santa Cruz, Calif.) polyclonal antibody. The secondary antibody was an HRP-conjugated anti-goat IgG (Jackson ImmunoResearch, USA). The membranes were blocked with 5% skin milk/Tris-buffered saline containing 0.1% Tween-20 (TBST) at room temperature for 1 h, after which the samples were incubated overnight at 4° C. with each of the above primary antibodies. The membranes were then washed three times with TBST, followed by 1 h incubation at room temperature with the secondary antibody. […]
# [7] = test system: HT-29 cells; assay: Western blot of intracellular AAT level, HT-29 cells; format: cell-based, human; conditions: HT-29 cell lysates; TPCK 50 μM, tamoxifen 10 μM; 1-3 hr treatment
# Protocol: as §5
# [8] = test system: trypsin; assay: Trypsin activity assay (BAEE cleavage); format: biochemical; conditions: substrate BAEE, absorbance at 253 nm
# Protocol: (§6) Trypsin activity was determined according to Bergmeyer et. al. (Bergmeyer, H. U., Gawehn, K. and Grassl, M. (1974) in Methods of Enzymatic Analysis (Bergmeyer, H. U. ed.) Volume 1, 2nd ed., 516-517, Academic Press, New York, N.Y.). All assays were set up at a total volume of 1 ml by adding 65 μl trypsin at final amount of 1.625 μg, 0.23 mM Na-benzoyl-L-arginine ethyl ester (BAEE) as substrate in 63 mM sodium phosphate, in the presence or absence of 100 μM or 125 μM AAT with or without different concentration of TPCK. Trypsin activity was measured by the cleavage of the substrate BAEE by measuring absorbance at 253 nm.
# [9] = test system: HT-29 cells; assay: Labeling of autophagic vacuoles with monodansylcadaverine (MDC), HT-29 cells; format: cell-based, human; conditions: HT-29 cells treated with TPCK for 24 hours
# Protocol: HT-29 colorectal adenocarcinoma cells were cultured in RPMI 1640 (Invitrogene, 21875) supplemented with 10% FBS, 300 mg/l L-glutamine, 100 U/ml penicillin, 100 μg/ml streptomycin and 12.5 U/ml nystatin at 37° C. in 5% CO2.
# as §2, §3, §4
# [10] = test system: GFP-LC3 transfected MCF-7 cells; assay: GFP-LC3 imaging of transfected MCF-7 cells; format: cell-based, human; conditions: TPCK 50 μM, 24 hours
# [11] = biological target: AAT (Homo sapiens, UniProt P01009); assay: AAT inhibition of trypsin activity (BAEE cleavage); format: biochemical; conditions: TPCK added to AAT and trypsin; P<0.001 compared with control
# Protocol: as §6
# [12] = test system: alpha-1-antitrypsin (AAT)
# Sequence of AAT (P01009 25-418): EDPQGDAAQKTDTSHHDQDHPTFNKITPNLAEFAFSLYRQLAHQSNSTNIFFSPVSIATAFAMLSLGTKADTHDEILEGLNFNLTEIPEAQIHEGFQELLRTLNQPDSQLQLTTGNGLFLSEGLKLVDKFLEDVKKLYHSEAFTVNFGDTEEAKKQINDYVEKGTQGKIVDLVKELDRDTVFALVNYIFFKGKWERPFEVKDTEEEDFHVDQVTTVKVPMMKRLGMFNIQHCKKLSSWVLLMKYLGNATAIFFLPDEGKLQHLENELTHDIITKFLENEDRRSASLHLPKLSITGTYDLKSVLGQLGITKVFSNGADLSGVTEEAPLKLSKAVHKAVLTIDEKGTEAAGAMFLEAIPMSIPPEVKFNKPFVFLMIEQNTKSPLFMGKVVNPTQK
# Sequence of alpha-1-antitrypsin (AAT) (Homo sapiens, UniProt P01009) (P01009 25-418): as above
compound,measurement,setting,value
Cn1cnc(N)c2ncnc1-2 [3-Methyladenine],MDC uptake in cells treated with TPCK,[1],suppressed MDC uptake
same,TPCK or tamoxifen-induced cell death on addition of autophagy inhibitor,[2],reduced TPCK or tamoxifen-induced cell death
CCOC(=O)[C@H]1O[C@@H]1C(=O)N[C@@H](CC(C)C)C(=O)NCCC(C)C [E64d],TPCK-induced accumulation of LC3-II,[3],enhanced TPCK-induced accumulation of LC3-II
same,TPCK-induced accumulation of LC3-II,[4],enhanced TPCK-induced accumulation of LC3-II
same,TPCK or tamoxifen-induced cell death on addition of autophagy inhibitor,[2],reduced TPCK or tamoxifen-induced cell death
CO/C1=C\C(C)=C\[C@@H](C)[C@@H](O)[C@@H](C)C/C(C)=C/C=C/[C@H](OC)[C@@H]([C@@H](C)[C@@H](O)[C@H](C)[C@@]2(O)C[C@@H](O)[C@H](C)[C@@H](C(C)C)O2)OC1=O [bafilomycin A1],MDC uptake in cells treated with TPCK,[1],suppressed MDC uptake
same,TPCK or tamoxifen-induced cell death on addition of autophagy inhibitor,[2],reduced TPCK or tamoxifen-induced cell death
CC(C)CC(=O)N[C@H](C(=O)N[C@H](C(=O)N[C@@H](CC(C)C)[C@@H](O)CC(=O)N[C@@H](C)C(=O)N[C@@H](CC(C)C)[C@@H](O)CC(=O)O)C(C)C)C(C)C [pepstatin A] (Isovaleryl-VV[Sta]A[Sta]-OH),TPCK-induced accumulation of LC3-II,[3],enhanced TPCK-induced accumulation of LC3-II
same,TPCK-induced accumulation of LC3-II,[4],enhanced TPCK-induced accumulation of LC3-II
same,TPCK or tamoxifen-induced cell death on addition of autophagy inhibitor,[2],reduced TPCK or tamoxifen-induced cell death
CC/C(=C(\c1ccccc1)c1ccc(OCCN(C)C)cc1)c1ccccc1 [tamoxifen],competition with TRFCK on binding to AAT,[5],not able to compete with TRFCK on binding to AAT
same,cell death by trypan blue staining,[2],induced cell death
same,AAT level as compared to actin,[6],AAT level decreased
same,AAT level as compared to actin,[7],AAT level decreased
AAT: plasma-derived protein of the serine proteinase inhibitor family; recombinant AAT added to cells,"autophagy induced by TPCK and tamoxifen, assessed by MDC staining","[1]; MCF-7 cells, AAT added prior to induction by TPCK (50 μM, 24 h) or tamoxifen (5 μM, 72 h)",reduction in autophagy
same,"cell death induced by TPCK and tamoxifen, determined by trypan blue staining","[2]; AAT added prior to induction by TPCK (50 μM, 24 h) or tamoxifen (5 μM, 72 h)",reduction
same,trypsin activity,[8],inhibits trypsin activity
N-tosyl-L-phenylalanine chloromethyl ketone [TPCK],"MDC fluorescence intensity, number and size of MDC-labeled vesicles",[1]; MCF-7 cells treated with TPCK for 24 hours,dose dependent increase in fluorescence intensity
same,"MDC fluorescence intensity, number and size of MDC-labeled vesicles",[9],dose dependent increase in fluorescence intensity
same,GFP-LC3 label (number of autophagosomes),[10],accumulation of this label
same,LC3-II by western blot,"[3]; TPCK 50 μM, different times",appearance of LC3-II
same,LC3-II by western blot,"[4]; TPCK 50 μM, different times",appearance of LC3-II
same,cell death by trypan blue staining,[2],induced cell death
same,trypsin activity,[8],did not inhibit the trypsin activity
same,AAT inhibition of trypsin activity,[11],the inhibition by AAT was abolished
same,AAT level as compared to actin,[6],AAT level decreased
same,AAT level as compared to actin,[7],AAT level decreased
trypsin,"trypsin activity (cleavage of the substrate BAEE, absorbance at 253 nm)",[12],AAT inhibits trypsin activity
